Measurements published in US9260439B2, “Dihydropyrrolopyrimidine derivatives” (PFIZER INC., priority 2014, dated 2016).

Target: truncated PI3Kα (p110α/iSH2 p85α) (Homo sapiens (Human), UniProt P42336)
Assay: PI3KA_Act fluorescence polarization kinase assay (Ki)
Type: biochemical
Conditions: 1 mM ATP
In short: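 p110α/iSH2 p85α (0.5 nM) was reacted with 30 μM sonicated PIP2 in 50 mM HEPES pH 7.4, 150 mM NaCl, 5 mM MgCl2, 1 mM DTT and 0.05% CHAPS for 30 min at room temperature, then stopped with EDTA. PIP3 was detected by fluorescence polarization (GST-Grp1 PH domain/TAMRA-PIP3), and Ki came from a Morrison tight-binding fit.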

Chain of truncated PI3Kα (p110α/iSH2 p85α) (P42336 whole entry, the tested form may be a part): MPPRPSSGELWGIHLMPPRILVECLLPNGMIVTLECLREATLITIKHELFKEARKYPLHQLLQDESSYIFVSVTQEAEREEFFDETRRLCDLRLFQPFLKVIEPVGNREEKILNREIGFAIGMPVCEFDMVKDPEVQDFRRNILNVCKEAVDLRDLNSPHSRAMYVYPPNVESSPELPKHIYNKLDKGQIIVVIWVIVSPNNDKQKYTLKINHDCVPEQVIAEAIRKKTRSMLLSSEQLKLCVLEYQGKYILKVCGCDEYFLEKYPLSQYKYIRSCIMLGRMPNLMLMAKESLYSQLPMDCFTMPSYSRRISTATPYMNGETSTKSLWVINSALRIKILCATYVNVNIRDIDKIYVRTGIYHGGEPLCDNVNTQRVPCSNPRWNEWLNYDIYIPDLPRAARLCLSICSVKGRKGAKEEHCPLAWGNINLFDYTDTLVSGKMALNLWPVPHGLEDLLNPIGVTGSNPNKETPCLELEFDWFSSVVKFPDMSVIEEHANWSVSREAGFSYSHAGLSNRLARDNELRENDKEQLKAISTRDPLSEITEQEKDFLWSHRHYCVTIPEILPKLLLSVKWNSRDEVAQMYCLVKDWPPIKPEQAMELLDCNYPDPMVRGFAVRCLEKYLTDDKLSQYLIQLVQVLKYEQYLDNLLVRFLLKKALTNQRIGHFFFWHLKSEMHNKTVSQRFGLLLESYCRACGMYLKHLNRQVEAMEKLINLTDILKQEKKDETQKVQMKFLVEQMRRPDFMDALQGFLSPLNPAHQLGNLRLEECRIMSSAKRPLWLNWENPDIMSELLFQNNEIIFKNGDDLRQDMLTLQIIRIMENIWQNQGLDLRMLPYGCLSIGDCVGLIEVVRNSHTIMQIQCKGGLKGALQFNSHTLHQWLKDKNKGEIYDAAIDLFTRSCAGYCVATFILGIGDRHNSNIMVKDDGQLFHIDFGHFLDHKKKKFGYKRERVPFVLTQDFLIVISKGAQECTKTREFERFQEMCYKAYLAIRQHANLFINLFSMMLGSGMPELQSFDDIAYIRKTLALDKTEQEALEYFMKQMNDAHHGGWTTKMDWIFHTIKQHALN

Row | SMILES | PI3KA_Act Ki [nM]
1 | C[C@]1(N2CCc3c(-c4cnc(N)nc4)nc(N4CCOCC4)nc32)CCN(C(=O)[C@H]2CCCO2)C1 [Example 372, {(3S)-3-[4-(2-aminopyrimidin-5-yl)-2-(morpholin-4-yl)-5,6-dihydro-7H-pyrrolo[2,3-d]pyrimidin-7-yl]-3-methylpyrrolidin-1-yl}[(2R)-tetrahydrofuran-2-yl]methanone] | 0.040
2 | C[C@]1(N2CCc3c(-c4cnc(N)nc4)nc(N4CCOCC4)nc32)CCN(C(=O)[C@H]2CCOC2)C1 [Example 373, {(3S)-3-[4-(2-aminopyrimidin-5-yl)-2-(morpholin-4-yl)-5,6-dihydro-7H-pyrrolo[2,3-d]pyrimidin-7-yl]-3-methylpyrrolidin-1-yl}[(3S)-tetrahydrofuran-3-yl]methanone] | 0.028
3 | C[C@]1(N2CCc3c(-c4cnc(N)nc4)nc(N4CCOCC4)nc32)CCN(C(=O)[C@@H]2CCOC2)C1 [Example 374, {(3S)-3-[4-(2-aminopyrimidin-5-yl)-2-(morpholin-4-yl)-5,6-dihydro-7H-pyrrolo[2,3-d]pyrimidin-7-yl]-3-methylpyrrolidin-1-yl}[(3R)-tetrahydrofuran-3-yl]methanone] | 0.027
4 | C[C@]1(N2CCc3c(-c4cnc(N)nc4)nc(N4CCOCC4)nc32)CCN(C(=O)[C@@H]2CCCN2)C1.Cl [Example 377, {(3S)-3-[4-(2-aminopyrimidin-5-yl)-2-(morpholin-4-yl)-5,6-dihydro-7H-pyrrolo[2,3-d]pyrimidin-7-yl]-3-methylpyrrolidin-1-yl}[(2S)-pyrrolidin-2-yl]methanone hydrochloride] | 0.026
5 | C[C@]1(N2CCc3c(-c4cnc(N)nc4)nc(N4CCOCC4)nc32)CCN(C(=O)[C@@H]2CCC(=O)N2)C1 [Example 378, (5S)-5-({(3S)-3-[4-(2-aminopyrimidin-5-yl)-2-(morpholin-4-yl)-5,6-dihydro-7H-pyrrolo[2,3-d]pyrimidin-7-yl]-3-methylpyrrolidin-1-yl}carbonyl)pyrrolidin-2-one] | 0.082
6 | C[C@]1(N2CCc3c(-c4cnc(N)nc4)nc(N4CCOCC4)nc32)CCN(C(=O)[C@H]2CCC(=O)N2)C1 [Example 379, (5R)-5-({(3S)-3-[4-(2-aminopyrimidin-5-yl)-2-(morpholin-4-yl)-5,6-dihydro-7H-pyrrolo[2,3-d]pyrimidin-7-yl]-3-methylpyrrolidin-1-yl}carbonyl)pyrrolidin-2-one] | 0.061
7 | C[C@]1(N2CCc3c(-c4cnc(N)nc4)nc(N4CCOCC4)nc32)CCN(C(=O)C2(N)CCOC2)C1.Cl (stereo partly drawn) [Example 380, {(3S)-3-[4-(2-aminopyrimidin-5-yl)-2-(morpholin-4-yl)-5,6-dihydro-7H-pyrrolo[2,3-d]pyrimidin-7-yl]-3-methylpyrrolidin-1-yl}(3-aminotetrahydrofuran-3-yl)methanone hydrochloride] | 0.030
8 | C[C@]1(N2CCc3c(-c4cnc(N)nc4)nc(N4CCOCC4)nc32)CCN(C(=O)[C@H]2CCCN2)C1.Cl [Example 382, {(3S)-3-[4-(2-aminopyrimidin-5-yl)-2-(morpholin-4-yl)-5,6-dihydro-7H-pyrrolo[2,3-d]pyrimidin-7-yl]-3-methylpyrrolidin-1-yl}[(2R)-pyrrolidin-2-yl]methanone hydrochloride] | <0.018
9 | C[C@]1(N2CCc3c(-c4cnc(N)nc4)nc(N4CCOCC4)nc32)CCN(C(=O)[C@]2(F)CCNC2)C1.Cl [Example 383, {(3S)-3-[4-(2-aminopyrimidin-5-yl)-2-(morpholin-4-yl)-5,6-dihydro-7H-pyrrolo[2,3-d]pyrimidin-7-yl]-3-methylpyrrolidin-1-yl}[(3S)-3-fluoropyrrolidin-3-yl]methanone hydrochloride] | <0.018
10 | C[C@]1(N2CCc3c(-c4cnc(N)nc4)nc(N4CCOCC4)nc32)CCN(C(=O)[C@@]2(F)CCNC2)C1.Cl [Example 384] | <0.018
11 | Cn1nccc1C(=O)N1CC[C@](C)(N2CCc3c(-c4cnc(N)nc4)nc(N4CCOCC4)nc32)C1 [Example 385, {(3S)-3-[4-(2-aminopyrimidin-5-yl)-2-(morpholin-4-yl)-5,6-dihydro-7H-pyrrolo[2,3-d]pyrimidin-7-yl]-3-methylpyrrolidin-1-yl}(1-methyl-1H-pyrazol-5-yl)methanone] | <0.018
12 | Cc1n[nH]cc1C(=O)N1CC[C@](C)(N2CCc3c(-c4cnc(N)nc4)nc(N4CCOCC4)nc32)C1 [Example 386, {(3S)-3-[4-(2-aminopyrimidin-5-yl)-2-(morpholin-4-yl)-5,6-dihydro-7H-pyrrolo[2,3-d]pyrimidin-7-yl]-3-methylpyrrolidin-1-yl}(3-methyl-1H-pyrazol-4-yl)methanone] | <0.018
13 | C[C@]1(N2CCc3c(-c4cnc(N)nc4)nc(N4CCOCC4)nc32)CCN(C(=O)c2cn[nH]c2)C1 [Example 387, {(3S)-3-[4-(2-aminopyrimidin-5-yl)-2-(morpholin-4-yl)-5,6-dihydro-7H-pyrrolo[2,3-d]pyrimidin-7-yl]-3-methylpyrrolidin-1-yl}(1H-pyrazol-4-yl)methanone] | <0.018
14 | C[C@]1(N2CCc3c(-c4cnc(N)nc4)nc(N4CCOCC4)nc32)CCN(C(=O)c2ncc[nH]2)C1 [Example 388, {(3S)-3-[4-(2-aminopyrimidin-5-yl)-2-(morpholin-4-yl)-5,6-dihydro-7H-pyrrolo[2,3-d]pyrimidin-7-yl]-3-methylpyrrolidin-1-yl}(1H-imidazol-2-yl)methanone] | <0.018
15 | C[C@]1(N2CCc3c(-c4cnc(N)nc4)nc(N4CCOCC4)nc32)CCN(C(=O)c2cc[nH]n2)C1 [Example 389, {(3S)-3-[4-(2-aminopyrimidin-5-yl)-2-(morpholin-4-yl)-5,6-dihydro-7H-pyrrolo[2,3-d]pyrimidin-7-yl]-3-methylpyrrolidin-1-yl}(1H-pyrazol-3-yl)methanone] | <0.018
16 | Cn1ccnc1C(=O)N1CC[C@](C)(N2CCc3c(-c4cnc(N)nc4)nc(N4CCOCC4)nc32)C1 [Example 390, {(3S)-3-[4-(2-aminopyrimidin-5-yl)-2-(morpholin-4-yl)-5,6-dihydro-7H-pyrrolo[2,3-d]pyrimidin-7-yl]-3-methylpyrrolidin-1-yl}(1-methyl-1H-imidazol-2-yl)methanone] | 0.084
17 | Cn1ccc(C(=O)N2CC[C@](C)(N3CCc4c(-c5cnc(N)nc5)nc(N5CCOCC5)nc43)C2)n1 [Example 391, {(3S)-3-[4-(2-aminopyrimidin-5-yl)-2-(morpholin-4-yl)-5,6-dihydro-7H-pyrrolo[2,3-d]pyrimidin-7-yl]-3-methylpyrrolidin-1-yl}(1-methyl-1H-pyrazol-3-yl)methanone] | 0.022
18 | CNC(=N)N1CC[C@](C)(N2CCc3c(-c4cnc(N)nc4)nc(N4CCOCC4)nc32)C1 [Example 392, (3S)-3-[4-(2-aminopyrimidin-5-yl)-2-(morpholin-4-yl)-5,6-dihydro-7H-pyrrolo[2,3-d]pyrimidin-7-yl]-N,3-dimethylpyrrolidine-1-carboximidamide] | 0.101
19 | CCNC(=O)N1CC[C@@](C)(N2CCc3c(-c4cnc(N)nc4)nc(N4CCOCC4)nc32)C1 [Example 393, (3R)-3-[4-(2-aminopyrimidin-5-yl)-2-(morpholin-4-yl)-5,6-dihydro-7H-pyrrolo[2,3-d]pyrimidin-7-yl]-N-ethyl-3-methylpyrrolidine-1-carboxamide] | 0.085
20 | CC(C)NC(=O)N1CC[C@@](C)(N2CCc3c(-c4cnc(N)nc4)nc(N4CCOCC4)nc32)C1 [Example 394, (3R)-3-[4-(2-aminopyrimidin-5-yl)-2-(morpholin-4-yl)-5,6-dihydro-7H-pyrrolo[2,3-d]pyrimidin-7-yl]-3-methyl-N-(propan-2-yl)pyrrolidine-1-carboxamide] | 0.112
21 | CC(C)NC(=O)N1CC[C@](C)(N2CCc3c(-c4cnc(N)nc4)nc(N4CCOCC4)nc32)C1 [Example 395, (3S)-3-[4-(2-aminopyrimidin-5-yl)-2-(morpholin-4-yl)-5,6-dihydro-7H-pyrrolo[2,3-d]pyrimidin-7-yl]-3-methyl-N-(propan-2-yl)pyrrolidine-1-carboxamide] | 0.352
22 | CC(C)(C)NC(=O)N1CC[C@@](C)(N2CCc3c(-c4cnc(N)nc4)nc(N4CCOCC4)nc32)C1 [Example 396, (3R)-3-[4-(2-aminopyrimidin-5-yl)-2-(morpholin-4-yl)-5,6-dihydro-7H-pyrrolo[2,3-d]pyrimidin-7-yl]-N-tert-butyl-3-methylpyrrolidine-1-carboxamide] | 0.121
23 | CC(C)(C)NC(=O)N1CC[C@](C)(N2CCc3c(-c4cnc(N)nc4)nc(N4CCOCC4)nc32)C1 [Example 397, (3S)-3-[4-(2-aminopyrimidin-5-yl)-2-(morpholin-4-yl)-5,6-dihydro-7H-pyrrolo[2,3-d]pyrimidin-7-yl]-N-tert-butyl-3-methylpyrrolidine-1-carboxamide] | 0.101
24 | C[C@@]1(N2CCc3c(-c4cnc(N)nc4)nc(N4CCOCC4)nc32)CCN(CC(N)=O)C1 [Example 398, 2-{(3R)-3-[4-(2-aminopyrimidin-5-yl)-2-(morpholin-4-yl)-5,6-dihydro-7H-pyrrolo[2,3-d]pyrimidin-7-yl]-3-methylpyrrolidin-1-yl}acetamide] | 0.411
25 | C[C@]1(N2CCc3c(-c4cnc(N)nc4)nc(N4CCOCC4)nc32)CCN(CC(N)=O)C1 [Example 399, 2-{(3S)-3-[4-(2-aminopyrimidin-5-yl)-2-(morpholin-4-yl)-5,6-dihydro-7H-pyrrolo[2,3-d]pyrimidin-7-yl]-3-methylpyrrolidin-1-yl}acetamide] | 0.074
26 | CNC(=O)CN1CC[C@@](C)(N2CCc3c(-c4cnc(N)nc4)nc(N4CCOCC4)nc32)C1 [Example 400, 2-{(3R)-3-[4-(2-aminopyrimidin-5-yl)-2-(morpholin-4-yl)-5,6-dihydro-7H-pyrrolo[2,3-d]pyrimidin-7-yl]-3-methylpyrrolidin-1-yl}-N-methylacetamide] | 0.781
